Laboratory results reported in article PMC4624771, “Oriented Cell Division in the C. elegans Embryo Is Coordinated by G-Protein Signaling Dependent on the Adhesion GPCR LAT-1” (PLoS Genetics, 2015).

How the values were obtained:
LAT-1 = assay: Peptide-stimulated cAMP accumulation assay, lat-1-transfected COS-7 cells; assay type: cell-based, C. elegans; details: 1 mM peptide; for agonistic activity at LAT-1 in vitro (cAMP levels), in words: lat-1-transfected COS-7 cells, cAMP accumulation assay
Text: Fig 3 An agonistic sequence C-terminal of the GPS cleavage site activates LAT-1 in vitro. (A) Evolutionary conservation of the putative agonistic region C-terminal of the GPCR proteolytic site (GPS) cleavage site in different latrophilin homologs. The GPS is part of the GPCR-autoproteolysis inducing (GAIN) domain, a characteristic feature of most aGPCRs which is located N-terminal of the first transmembrane domain (TM1). Sequences were retrieved from NCBI/GenBank and aligned utilizing Jalview 2 [36]. (B, F) Peptide-stimulated cAMP response of LAT-1 (B) and rat LPHN1 (F). COS-7 cells transfected with 0.2 μg empty control vector (pcDps) or plasmid encoding the latrophilin homolog, respectively, were stimulated with 1 mM peptide and cAMP levels were measured by cAMP accumulation assay. A mutated peptide served as negative control (CMP12/RMP13). […] Basal cAMP levels (empty vector, no peptide) are 5.3 ± 1.3 nM. Data are given as means ± SD of five independent experiments, each performed in triplicate. * p < 0.05; ** p < 0.01. (C) LPHN1 is expressed in COS-7 cells. Cells were transfected with 500 ng/well of empty vector (pcDps) or plasmid encoding either rat LPHN1, human P2Y12, or human V2R. […] Expression of the human vasopressin type 2 receptor V2R is shown as a comparison. The non-specific OD value (empty vector) was 0.06 ± 0.03 (set 0%) and the OD value of P2Y12 was 1.28 ± 0.12 (set 100%). Data are given as means ± SD of at least three independent experiments. *** p < 0.001. […] To analyze functional Gi coupling, the chimeric Gαqi4 protein was applied to reroute a potential Gi-protein pathway to the […]. For each assay, 1.5 μg/well of plasmid encoding LPHN1 was transfected (for Gi-protein coupling, co-transfection with 100 ng of chimeric Gαqi4 protein was performed). No activation of any of the signaling pathway was observed. Basal IP levels are: 220 ± 34 CPM/well (empty vector); 234 ± 39 CPM/well (empty vector + Gαqi4). Data are given as means ± SD of three independent experiments, each performed in triplicate. n.s. not significant. (E) LPHN1 couples to Gαs. COS-7 cells were transfected with increasing amounts of empty control vector (pcDps) or plasmid encoding either rat LPHN1, human V2R or human P2Y12, and cAMP levels were measured after 48 hours. cAMP concentrations are shown as fold change over empty control vector, basal cAMP levels: 6.2 ± 2.3 nM (200 ng); 6.1 ± 2.5 nM (300 ng); 5.1 ± 2.6 nM (400 ng); 6.1 ± 4.5 nM (500 ng). The Gs-protein coupling V2R served as positive and the predominantly Gi-protein coupling P2Y12 as negative control. Data are given as means ± SD of three independent experiments, each performed in triplicate. *** p < 0.001.
For functional assays, COS-7 cells were transiently transfected. To determine total as well as cell surface expression of receptors carrying N-terminal HA and C-terminal FLAG tags, indirect cellular enzyme-linked immunosorbent assays (ELISA) were employed. cAMP concentrations were measured using the ALPHAScreen cAMP assay kit (PerkinElmer Life Sciences) according to the manufacturer's protocol. IP formation was determined as previously described. Assay data was analyzed with GraphPad Prism version 5.0 (GraphPad Software). Statistics were performed using a two-way ANOVA in combination with Bonferroni as post-hoc test. For details see Supporting Experimental Procedures.
COS-7 cells were grown in Dulbecco's Modified Eagle Medium (DMEM) supplemented with 10% fetal bovine serum, 100 U/ml penicillin and 100 μg/ml streptomycin at 37°C and 5% CO2 in a humidified atmosphere. […]

[1] = tested on: lat-1 mutant nematodes expressing lat-1 with a lat-2 GPS; assay: Peptide-mediated rescue of lethality in lat-1 mutants expressing lat-1 with a lat-2 GPS; assay type: in vivo, C. elegans; details: mothers and subsequently offspring soaked in 0.1 mM peptide, n ≥ 350
Protocol: Fig 4 The agonistic sequence of LAT-1 triggers receptor function in vivo. (A) Domain architecture of LAT-1 with an exchange of the GPS for the LAT-2 GPS. (B) Peptide-mediated rescue of lethality in lat-1 mutant nematodes expressing lat-1 with a lat-2 GPS. Mothers and subsequently offspring were soaked in 0.1 mM of peptide and individuals reaching adulthood were scored (n ≥ 350). […] Negative controls: mutated peptide CMP12 and a peptide derived from rat LPHN1 (RP13). Data are shown as means ± SD, **p<0.01; ***p<0.001. (C) Transgenically expressed lat-1 ^T530A/F532A::gfp exclusively rescues fertility defects of lat-1 mutants. Nematodes expressing lat-1 ^T530A/F532A::gfp in a lat-1 mutant background display lethality but no fertility defects compared to a lat-1::gfp transgenic control. (D) Expression and protein localization of lat-1::gfp (top) is indistinguishable from lat-1 ^T530A/F532A::gfp (bottom). Arrows indicate expression.
All compounds were obtained from Sigma Aldrich. Forskolin was dissolved in DMSO to 10 mM, 3-isobutyl-1-methylxanthine (IBMX) in Dent´s buffer to 10 mM, 8-bromoadenosine 3′,5′-cyclic monophosphate (8-Br-cAMP) in 1 N ammonium hydroxide to 250 mM and 2',5'-dideoxyadenosine (ddA) was diluted in DMSO to 100 mM prior to final dilution in Dent´s buffer. Peptides were synthesized (see Supporting Experimental Procedures) and dissolved in DMSO to 100 mM prior to final dilution in M9. Worms were incubated in 80 μM forskolin, 10 mM IBMX, 0.25 mM 8-Br-cAMP, 1 mM ddA or 0.1 mM peptide solution, respectively, containing E. coli OP50.
The lethality rescue assay was conducted as previously described. Fifty L4 hermaphrodites were transferred into wells of a 72-well flat-bottom Terasaki plates (Greiner Bio-One) containing OP50 and allowed to lay eggs for 24 hours at 22°C. Five to ten eggs were transferred into fresh wells with corresponding solutions and incubated at 22°C. The number of dead/surviving embryos was scored 24 hours later, the number of adult animals 48 hours later on an inverted microscope. Data were examined with an unpaired two-tailed t test for each genotype and condition.

lat-1(ok1465) nematodes = assay: Lethality rescue assay in lat-1 mutant nematodes; assay type: in vivo; details: L4 larvae and subsequently embryos incubated; forskolin 80 μM, IBMX 10 mM, 8-Br-cAMP 0.25 mM
Text: Fig 2 Division plane defects in lat-1 mutant embryos are rescued by elevation of intracellular cAMP via a Gs protein/adenylyl cyclase pathway. […] In wild-type embryos treated with the RNAi control vector L4440 ABal divides in an anterior-posterior direction (A) whereas in treated lat-1 mutants the division plane is almost perpendicular to MS (B). gsa-1 RNAi by feeding over two generations leads to a turning of the F2 ABal division plane in a direction similar to that in lat-1 mutants (C). F2 lat-1; gsa-1(RNAi) embryos show a similar ABal division plane to lat-1 mutants (D). (E) Cell division plane angles of ABal relative to MS after knockdown of gsa-1. […] The vector L4440 served as negative control. Data are shown as means ± SD. * p < 0.05; *** p < 0.001; n ≥ 11. (F) cAMP levels are reduced in lat-1 embryos compared to a control wild-type population. cAMP levels were measured after lysis (15 μg protein) by cAMP accumulation assay. Assays were performed in three independent experiments, data are given as means ± SD. ** p < 0.01. (G) Rescue of developmental lethality in lat-1 nematodes treated with compounds promoting cAMP accumulation: forskolin (80 μM), IBMX (10 mM) and 8-Br-cAMP (0.25 mM). Mothers and subsequently offspring of wild-type and lat-1 individuals were incubated and individuals reaching adulthood were scored (n = 410). As controls, nematodes were incubated in solvent without drug (mock). Data are shown as means ± SD. * p < 0.05; ** p < 0.01; *** p < 0.001. (H) Forskolin increases cAMP levels in C. elegans embryos and adults. lat-1 mutants and subsequently embryos were incubated with 80 μM forskolin. […] As controls, nematodes were treated with 0.8% DMSO lacking forskolin (mock). Basal cAMP levels of mock control are: 0.70 ± 0.14 nM (wild-type embryos); 0.37 ± 0.19 nM (lat-1 embryos); 1.9 ± 0.7 nM (wild-type adults); 2.3 ± 0.8 nM (lat-1 adults). Assays were performed in three independent experiments, data are given as means ± SD. * p < 0.05; ** p < 0.01; *** p < 0.001. (I-L) Relative positions of ABala, ABalp, and MS in an AB^4 embryo. Schematic representation (top) and DIC microscopy (bottom), scale bars = 10 μm. In wild-type embryos (I) and embryos incubated in 80 μM forskolin for 120 minutes (K) ABal divides in an anterior-posterior direction with only ABalp forming an interface with MS. In lat-1 mutants the division plane is skewed resulting in ABala and ABalp contacting MS (J). lat-1 embryos treated with 80 μM forskolin for 120 minutes display wild-type division and cell interfaces (L). (M) Arrangement of blastomeres in the 12-cell stage embryo. […] The right-hand side is two views of the mean positions of the blastomeres. The spheres are enlarged to convey an impression of the contacts. Forskolin turns the ABal spindle in the mutant in a more anterior direction. (N) Cell division plane angles of ABal relative to MS of untreated wild-type/lat-1 controls and wild-type/lat-1 embryos after incubation of mothers and subsequently embryos for 48 hours in 80 μM forskolin. Upon forskolin treatment, mutant embryos display a wild-type division angle. As controls, nematodes were treated with 0.8% DMSO lacking forskolin (mock). Data are shown as average angles ± SD, *** p < 0.001; n ≥ 12. (O) Forskolin reduces the contact length of ABala to MS. Ratio of relative contact lengths of ABala to MS and ABalp to MS cells lat-1 embryos untreated (control, n = 10) and after incubation of mothers and subsequently embryos for 48 hours in 80 μM forskolin (n = 11). […] Data were calculated from pixel analyses utilizing DIC images and are shown as means ± SD, ** p < 0.01.
All compounds were obtained from Sigma Aldrich. Forskolin was dissolved in DMSO to 10 mM, 3-isobutyl-1-methylxanthine (IBMX) in Dent´s buffer to 10 mM, 8-bromoadenosine 3′,5′-cyclic monophosphate (8-Br-cAMP) in 1 N ammonium hydroxide to 250 mM and 2',5'-dideoxyadenosine (ddA) was diluted in DMSO to 100 mM prior to final dilution in Dent´s buffer. […]

Q: How did the “agonistic activity at LAT-1 in vitro (cAMP levels), in words” value (from here on “agonistic activity at LAT-1 in vitro”) (LAT-1) turn out when “CP10: peptide comprising the LAT-1 sequence C-terminal of the GPS cleavage site (THFAVLMDVR)” was run?
A: Its value is “no agonistic activity in vitro”.

Q: What about the “rescue of tissue polarity phenotype / activity in vivo, in words” value [1] of the same compound?
A: The value was “not display any activity in vivo”.

Q: With `Nc1ncnc2c1nc(Br)n2[C@@H]1O[C@@H]2COP(=O)(O)O[C@H]2[C@H]1O` [8-Br-cAMP, 8-bromoadenosine 3′,5′-cyclic monophosphate] as the compound, how does the “effect on embryonic lethality of lat-1 worms, in words” value (lat-1(ok1465) nematodes) read?
A: Its value is “amelioration of embryonic lethality”.

Q: For `CC(C)Cn1c(=O)n(C)c(=O)c2[nH]cnc21` [IBMX, 3-isobutyl-1-methylxanthine], which “effect on embryonic lethality of lat-1 worms, in words” value (lat-1(ok1465) nematodes) is on record?
A: The value was “amelioration of embryonic lethality”.

Q: For “CMP12: CP12-derived peptide with positions +1 (T530) and +3 (F532) mutated to alanine (AHAAVLMDVRGH)”, which “agonistic activity at LAT-1 in vitro” value (LAT-1) is on record?
A: The value was “did not display any activity”.

Q: What about the “rescue of tissue polarity phenotype / activity in vivo, in words” value [1] of the same compound?
A: The value was “not display any activity in vivo”.

Q: “CP9: peptide comprising the LAT-1 sequence C-terminal of the GPS cleavage site (THFAVLMDV)” was tested. Which “agonistic activity at LAT-1 in vitro” value (LAT-1) did it give?
A: The value was “no agonistic activity in vitro”.

Q: What about the “rescue of tissue polarity phenotype / activity in vivo, in words” value [1] of the same compound?
A: Its value is “not display any activity in vivo”.

Q: For “CP13: peptide of 13 amino acids comprising the LAT-1 sequence C-terminal of the GPS cleavage site (THFAVLMDVRGHD)”, which “agonistic activity at LAT-1 in vitro” value (LAT-1) is on record?
A: Its value is “increased cAMP levels”.

Q: What about the “rescue of lethality (individuals reaching adulthood)” value ([1]; means ± SD, untreated controls 26 ± 7%) of the same compound?
A: The value was 46 ± 12%.

Q: And the “rescue of tissue polarity phenotype / activity in vivo, in words” value [1]?
A: Its value is “efficiently rescued”.

Q: “CP12: peptide of 12 amino acids comprising the LAT-1 sequence C-terminal of the GPS cleavage site (THFAVLMDVRGH)” was tested. Which “increase of cAMP concentration above basal levels” value (LAT-1; lat-1-transfected COS-7 cells (0.2 μg plasmid), ALPHAScreen cAMP assay, means of five independent experiments, each in triplicate) did it give?
A: The value was 1.6 fold.

Q: What about the “agonistic activity at LAT-1 in vitro” value (LAT-1) of the same compound?
A: Its value is “increased cAMP levels”.

Q: And the “rescue of tissue polarity phenotype / activity in vivo, in words” value [1]?
A: The value was “efficiently rescued”.

Q: For “CP14: peptide comprising the LAT-1 sequence C-terminal of the GPS cleavage site (THFAVLMDVRGHDL)”, which “agonistic activity at LAT-1 in vitro” value (LAT-1) is on record?
A: Its value is “no agonistic activity in vitro”.

Q: What about the “rescue of tissue polarity phenotype / activity in vivo, in words” value [1] of the same compound?
A: The value was “not display any activity in vivo”.
